In ChEMBL document CHEMBL2176903, “P2-substituted N-acylprolylpyrrolidine inhibitors of prolyl oligopeptidase: biochemical evaluation, binding mode determination, and assessment in a cellular model of synucleinopathy” (J Med Chem, 2012):
pIC50: −log10 of the molar value.

Molecular target: Dipeptidyl peptidase 2 (Homo sapiens, UniProt Q9UHL4)
Assay: Inhibition of human seminal plasma DPP2 assessed as pNA release from Lys-Ala-p-nitroanilide substrate pre-incubated with enzyme for 15 min prior to substrate addition by […]

O=C([C@@H]1C[C@H](n2cc(COCc3ccccc3)nn2)CN1C(=O)CCCc1ccccc1)N1CCCC1 and O=C([C@@H]1C[C@@H](n2cc(-c3ccccc3)nn2)CN1C(=O)CCCc1ccccc1)N1CCCC1 cannot be ordered by pIC50: less than 4.00 for the first, less than 4.00 for the second.

O=C([C@@H]1C[C@H](n2cc(CN3CCOCC3)nn2)CN1C(=O)CCCc1ccccc1)N1CCCC1 and NCc1cn([C@H]2C[C@@H](C(=O)N3CCCC3)N(C(=O)CCCc3ccccc3)C2)nn1 cannot be ordered by pIC50: less than 4.00 for the first, less than 5.00 for the second.

CC(C)(C)OC(=O)N1CCN(Cc2cn([C@H]3C[C@@H](C(=O)N4CCCC4)N(C(=O)CCCc4ccccc4)C3)nn2)CC1 and [N-]=[N+]=N[C@H]1C[C@@H](C(=O)N2CCCC2)N(C(=O)CCCc2ccccc2)C1 cannot be ordered by pIC50: less than 4.00 for the first, less than 4.00 for the second.

O=C([C@@H]1CCCN1C(=O)CCCc1ccccc1)N1CCCC1 and O=C([C@@H]1C[C@H](n2ccnn2)CN1C(=O)OCc1ccccc1)N1CCCC1 cannot be ordered by pIC50: less than 4.00 for the first, less than 4.00 for the second.

Molecular target: Prolyl endopeptidase (Sus scrofa, UniProt P23687)
Sequence (P23687 whole entry): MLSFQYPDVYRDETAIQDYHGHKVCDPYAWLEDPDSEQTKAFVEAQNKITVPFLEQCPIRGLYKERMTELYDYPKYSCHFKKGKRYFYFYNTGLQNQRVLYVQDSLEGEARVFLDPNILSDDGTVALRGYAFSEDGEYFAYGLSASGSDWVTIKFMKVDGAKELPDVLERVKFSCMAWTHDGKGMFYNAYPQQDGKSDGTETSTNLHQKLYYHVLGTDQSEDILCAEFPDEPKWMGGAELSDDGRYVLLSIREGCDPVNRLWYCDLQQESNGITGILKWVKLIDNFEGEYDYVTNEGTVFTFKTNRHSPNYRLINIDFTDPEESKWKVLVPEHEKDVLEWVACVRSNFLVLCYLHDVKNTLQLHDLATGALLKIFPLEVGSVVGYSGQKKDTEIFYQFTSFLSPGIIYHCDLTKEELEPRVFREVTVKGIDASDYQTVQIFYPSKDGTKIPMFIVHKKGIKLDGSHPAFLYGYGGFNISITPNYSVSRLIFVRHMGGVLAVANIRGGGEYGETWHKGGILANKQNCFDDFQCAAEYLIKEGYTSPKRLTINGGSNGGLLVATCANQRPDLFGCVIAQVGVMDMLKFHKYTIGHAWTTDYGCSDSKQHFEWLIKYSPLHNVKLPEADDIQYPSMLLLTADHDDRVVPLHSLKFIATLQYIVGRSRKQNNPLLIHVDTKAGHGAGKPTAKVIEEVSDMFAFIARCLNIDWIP
Assay: Inhibition of pig PREP expressed in Escherichia coli using Z-Gly-Pro-p-nitroanilide substrate

In order of falling pIC50:
1. CC(C)(C)OC(=O)N1CCN(Cc2cn([C@H]3C[C@@H](C(=O)N4CCCC4)N(C(=O)CCCc4ccccc4)C3)nn2)CC1  6.96
2. O=C([C@@H]1C[C@H](n2cc(COCc3ccccc3)nn2)CN1C(=O)CCCc1ccccc1)N1CCCC1  6.88
3. [N-]=[N+]=N[C@H]1C[C@@H](C(=O)N2CCCC2)N(C(=O)CCCc2ccccc2)C1  6.85
4. NCc1cn([C@H]2C[C@@H](C(=O)N3CCCC3)N(C(=O)CCCc3ccccc3)C2)nn1  6.77
5. O=C([C@@H]1C[C@H](n2cc(CN3CCOCC3)nn2)CN1C(=O)CCCc1ccccc1)N1CCCC1  6.62
6. O=C([C@@H]1C[C@@H](n2cc(-c3ccccc3)nn2)CN1C(=O)CCCc1ccccc1)N1CCCC1  6.27
7. O=C([C@@H]1C[C@H](n2ccnn2)CN1C(=O)OCc1ccccc1)N1CCCC1  5.94

Molecular target: not listed separately
Assay: Inhibition of bovine testes DPP9 assessed as pNA release from Ala-Pro- p-nitroanilide substrate pre-incubated with enzyme for 15 min prior to substrate addition by […]
Parameters: species or system Bos taurus

O=C([C@@H]1C[C@H](n2cc(COCc3ccccc3)nn2)CN1C(=O)CCCc1ccccc1)N1CCCC1 and O=C([C@@H]1C[C@@H](n2cc(-c3ccccc3)nn2)CN1C(=O)CCCc1ccccc1)N1CCCC1 cannot be ordered by pIC50: less than 4.00 for the first, less than 4.30 for the second.

Compared with O=C([C@@H]1C[C@H](n2cc(CN3CCOCC3)nn2)CN1C(=O)CCCc1ccccc1)N1CCCC1, NCc1cn([C@H]2C[C@@H](C(=O)N3CCCC3)N(C(=O)CCCc3ccccc3)C2)nn1 is lower in pIC50: 5.96 for the first, less than 4.00 for the second.

Going from CC(C)(C)OC(=O)N1CCN(Cc2cn([C@H]3C[C@@H](C(=O)N4CCCC4)N(C(=O)CCCc4ccccc4)C3)nn2)CC1 to [N-]=[N+]=N[C@H]1C[C@@H](C(=O)N2CCCC2)N(C(=O)CCCc2ccccc2)C1, the pIC50 falls from 6.22 to less than 4.00. The first is the more potent here.

Going from O=C([C@@H]1CCCN1C(=O)CCCc1ccccc1)N1CCCC1 to O=C([C@@H]1C[C@H](n2ccnn2)CN1C(=O)OCc1ccccc1)N1CCCC1, the pIC50 rises from less than 4.00 to 4.17. The second is the more potent here.

Molecular target: T1, Prolyl endopeptidase FAP (Mus musculus, UniProt P97321)
T1 sequence (P97321 whole entry): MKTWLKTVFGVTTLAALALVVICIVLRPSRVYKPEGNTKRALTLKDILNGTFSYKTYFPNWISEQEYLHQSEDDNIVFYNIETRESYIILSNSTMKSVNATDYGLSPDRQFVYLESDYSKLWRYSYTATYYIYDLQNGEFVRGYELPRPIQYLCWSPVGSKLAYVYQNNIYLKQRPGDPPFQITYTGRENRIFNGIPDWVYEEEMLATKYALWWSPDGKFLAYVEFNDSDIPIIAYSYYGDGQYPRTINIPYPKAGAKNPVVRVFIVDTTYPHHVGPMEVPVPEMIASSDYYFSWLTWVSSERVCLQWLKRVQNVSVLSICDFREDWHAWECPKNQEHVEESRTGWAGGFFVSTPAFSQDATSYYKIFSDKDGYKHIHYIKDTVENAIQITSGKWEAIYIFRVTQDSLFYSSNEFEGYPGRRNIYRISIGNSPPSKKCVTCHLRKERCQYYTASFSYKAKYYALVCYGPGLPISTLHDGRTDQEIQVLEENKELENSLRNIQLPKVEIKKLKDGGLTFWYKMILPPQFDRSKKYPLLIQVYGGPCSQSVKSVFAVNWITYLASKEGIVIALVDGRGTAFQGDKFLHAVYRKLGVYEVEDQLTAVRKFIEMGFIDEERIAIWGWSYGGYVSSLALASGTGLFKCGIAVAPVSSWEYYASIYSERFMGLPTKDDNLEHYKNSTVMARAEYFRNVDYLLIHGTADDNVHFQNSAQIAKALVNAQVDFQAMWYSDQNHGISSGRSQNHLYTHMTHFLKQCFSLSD
Assay: Inhibition of mouse recombinant FAP expressed in HEK293 cells assessed as pNA release from Ala-Pro-p-nitroanilide pre-incubated with enzyme for 15 mins prior to substrate addition by […]
Assay type: cell-based

O=C([C@@H]1C[C@H](n2cc(CN3CCOCC3)nn2)CN1C(=O)CCCc1ccccc1)N1CCCC1 and NCc1cn([C@H]2C[C@@H](C(=O)N3CCCC3)N(C(=O)CCCc3ccccc3)C2)nn1 cannot be ordered by pIC50: less than 4.00 for the first, less than 4.00 for the second.

CC(C)(C)OC(=O)N1CCN(Cc2cn([C@H]3C[C@@H](C(=O)N4CCCC4)N(C(=O)CCCc4ccccc4)C3)nn2)CC1 and [N-]=[N+]=N[C@H]1C[C@@H](C(=O)N2CCCC2)N(C(=O)CCCc2ccccc2)C1 cannot be ordered by pIC50: less than 4.00 for the first, less than 4.00 for the second.

O=C([C@@H]1CCCN1C(=O)CCCc1ccccc1)N1CCCC1 and O=C([C@@H]1C[C@H](n2ccnn2)CN1C(=O)OCc1ccccc1)N1CCCC1 cannot be ordered by pIC50: less than 4.00 for the first, less than 4.00 for the second.

Molecular target: Dipeptidyl peptidase 4 (Homo sapiens, UniProt P27487)
Sequence (P27487 whole entry): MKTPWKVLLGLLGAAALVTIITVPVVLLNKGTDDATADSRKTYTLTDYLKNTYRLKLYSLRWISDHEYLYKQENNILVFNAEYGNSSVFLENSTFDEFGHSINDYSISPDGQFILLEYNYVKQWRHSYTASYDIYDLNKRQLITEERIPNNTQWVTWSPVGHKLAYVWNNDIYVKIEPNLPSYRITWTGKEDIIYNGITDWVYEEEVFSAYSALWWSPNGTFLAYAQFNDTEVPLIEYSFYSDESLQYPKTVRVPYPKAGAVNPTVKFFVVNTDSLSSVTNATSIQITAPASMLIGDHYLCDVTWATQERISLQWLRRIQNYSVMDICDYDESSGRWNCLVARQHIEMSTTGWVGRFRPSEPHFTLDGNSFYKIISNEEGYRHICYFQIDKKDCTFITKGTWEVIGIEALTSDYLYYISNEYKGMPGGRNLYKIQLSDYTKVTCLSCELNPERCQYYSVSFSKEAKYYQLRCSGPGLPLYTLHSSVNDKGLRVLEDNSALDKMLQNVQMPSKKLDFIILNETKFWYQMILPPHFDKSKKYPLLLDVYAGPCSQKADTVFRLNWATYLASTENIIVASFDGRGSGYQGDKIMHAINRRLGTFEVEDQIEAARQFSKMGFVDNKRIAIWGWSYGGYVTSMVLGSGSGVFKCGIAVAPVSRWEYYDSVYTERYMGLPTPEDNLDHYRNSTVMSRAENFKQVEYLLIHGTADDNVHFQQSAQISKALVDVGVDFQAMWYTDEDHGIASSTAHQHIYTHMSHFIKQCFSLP
Assay: Inhibition of human seminal plasma DPP4 assessed as pNA release from Gly-Pro-p-nitroanilide substrate pre-incubated with enzyme for 15 min prior to substrate addition by […]

O=C([C@@H]1C[C@H](n2cc(COCc3ccccc3)nn2)CN1C(=O)CCCc1ccccc1)N1CCCC1 and O=C([C@@H]1C[C@@H](n2cc(-c3ccccc3)nn2)CN1C(=O)CCCc1ccccc1)N1CCCC1 cannot be ordered by pIC50: less than 4.00 for the first, less than 4.00 for the second.

O=C([C@@H]1C[C@H](n2cc(CN3CCOCC3)nn2)CN1C(=O)CCCc1ccccc1)N1CCCC1 and NCc1cn([C@H]2C[C@@H](C(=O)N3CCCC3)N(C(=O)CCCc3ccccc3)C2)nn1 cannot be ordered by pIC50: less than 4.30 for the first, less than 4.00 for the second.

CC(C)(C)OC(=O)N1CCN(Cc2cn([C@H]3C[C@@H](C(=O)N4CCCC4)N(C(=O)CCCc4ccccc4)C3)nn2)CC1 and [N-]=[N+]=N[C@H]1C[C@@H](C(=O)N2CCCC2)N(C(=O)CCCc2ccccc2)C1 cannot be ordered by pIC50: less than 4.00 for the first, less than 4.00 for the second.

O=C([C@@H]1CCCN1C(=O)CCCc1ccccc1)N1CCCC1 and O=C([C@@H]1C[C@H](n2ccnn2)CN1C(=O)OCc1ccccc1)N1CCCC1 cannot be ordered by pIC50: less than 4.00 for the first, less than 4.00 for the second.
